Assay [1] deals with T1, Epidermal growth factor receptor [1-763,'FHEA',764-1210] (UniProt P00533).
T1 construct: 1-763,'FHEA',764-1210
As to the kind of experiment: Inhibitory Activity of Compounds Against EGFR Mutant Enzyme. The protocol:
(§1) The activity of the compounds of the present invention against EGFR mutant enzymes was measured using the HTRF system purchased from Cisbio as follows. For an EGFR mutant enzyme, the EGFR del19 enzyme was a recombinant protein purchased from Carna Biosciences, and the EGFR A763_Y764insFHEA enzyme was a recombinant protein purchased from SignalChem, respectively.The composition of the assay buffer used for activity measurement was 50 mM tris-HCl pH 7.5, 100 mM NaCl, 7.5 mM MgCl2, 3 mM KCl, 0.01% tween 20, 0.1% BSA, and 1 mM DTT. An enzymatic reaction was performed using a peptide substrate labeled with ATP at a concentration of […] and biotin at a concentration of […]. The analysis of the inhibitory effect of the compounds on EGFR activity was performed according to the following method.Component 1:4 μL of EGFR mutant enzymeComponent 2:2 μL of compound solutionComponent 3:4 μL of ATP and a biotin labeled peptideThe enzyme reaction begins by first mixing component 1 and component 2 and then adding component 3 thereto. After the reaction at 37° C. for 2 hours, […] of a measurement solution consisting of streptavidin-XL665 and a europium-labeled anti-phosphotyrosine antibody purchased from Cisbio was added to the enzyme reaction solution and reacted at room temperature for 1 hour. Finally, the ratio of fluorescence values at 615 nm and 665 nm was measured using Perkin-Elmer's Envision instrument to calculate enzyme activity and confirm the inhibitory ability of the compounds.

Assay [2] concerns the target T2, Epidermal growth factor receptor [DEL746-750] (Homo sapiens, UniProt P00533).
T2 construct: gene EGFR
The description is as above. The protocol: as §1

Assay [3] has as its target T3, Receptor tyrosine-protein kinase erbB-2 [1-775,'YVMA',776-1255] (Homo sapiens, UniProt P04626).
T3 construct: 1-775,'YVMA',776-1255
As to the kind of experiment: Inhibitory Activity of Compounds Against HER2 A775_G776insYVMA mutant enzyme. The protocol: The activity of the compounds of the present invention against HER mutant enzymes was measured using the HTRF system purchased by Cisbio as follows. As a HER2 mutant enzyme, the HER2 A775_G776insYVMA mutant enzyme was used by purchasing a recombinant protein provided by Carna Biosciences.The composition of the assay buffer used for activity measurement was 50 mM tris-HCl pH 7.5, 100 mM NaCl, 7.5 mM MgCl2, 3 mM KCl, 0.01% tween 20, 0.1% BSA, and 1 mM DTT. In addition thereto, the enzymatic reaction was performed using a peptide substrate labeled with ATP at a concentration of […] and biotin at a concentration of […]. The analysis of the activity inhibitory effect of the compounds on HER2 A775_G776insYVMA mutation was performed according to the following method.Component 1:4 μL of HER2 A775_G776insYVMA mutant enzymeComponent 2:2 μL of compound solutionComponent 3:4 μL of ATP and a biotin labeled peptideThe enzyme reaction begins by first mixing component 1 and component 2 and then adding component 3 thereto. After the reaction at 37° C. for 2 hours, […] of a measurement solution consisting of streptavidin-XL665 and a europium-labeled anti-phosphotyrosine antibody purchased from Cisbio was added to the enzyme reaction solution and reacted at room temperature for 1 hour. Finally, the ratio of fluorescence values at 615 nm and 665 nm was measured using Perkin-Elmer's Envision equipment to calculate enzyme activity and confirm the inhibitory ability of the compounds.

Assay [4] has as its target T4, Epidermal growth factor receptor [DEL746-750] (Homo sapiens, UniProt P00533, DEL746-750).
T4 construct: gene EGFR
As to the kind of experiment: Inhibitory Activity of Compounds Against EGFR Mutant Enzyme. The protocol: as §1

T2 sequence (P00533 with tags, fused parts or gaps DEL746-750 limits assumed, stated change not applied): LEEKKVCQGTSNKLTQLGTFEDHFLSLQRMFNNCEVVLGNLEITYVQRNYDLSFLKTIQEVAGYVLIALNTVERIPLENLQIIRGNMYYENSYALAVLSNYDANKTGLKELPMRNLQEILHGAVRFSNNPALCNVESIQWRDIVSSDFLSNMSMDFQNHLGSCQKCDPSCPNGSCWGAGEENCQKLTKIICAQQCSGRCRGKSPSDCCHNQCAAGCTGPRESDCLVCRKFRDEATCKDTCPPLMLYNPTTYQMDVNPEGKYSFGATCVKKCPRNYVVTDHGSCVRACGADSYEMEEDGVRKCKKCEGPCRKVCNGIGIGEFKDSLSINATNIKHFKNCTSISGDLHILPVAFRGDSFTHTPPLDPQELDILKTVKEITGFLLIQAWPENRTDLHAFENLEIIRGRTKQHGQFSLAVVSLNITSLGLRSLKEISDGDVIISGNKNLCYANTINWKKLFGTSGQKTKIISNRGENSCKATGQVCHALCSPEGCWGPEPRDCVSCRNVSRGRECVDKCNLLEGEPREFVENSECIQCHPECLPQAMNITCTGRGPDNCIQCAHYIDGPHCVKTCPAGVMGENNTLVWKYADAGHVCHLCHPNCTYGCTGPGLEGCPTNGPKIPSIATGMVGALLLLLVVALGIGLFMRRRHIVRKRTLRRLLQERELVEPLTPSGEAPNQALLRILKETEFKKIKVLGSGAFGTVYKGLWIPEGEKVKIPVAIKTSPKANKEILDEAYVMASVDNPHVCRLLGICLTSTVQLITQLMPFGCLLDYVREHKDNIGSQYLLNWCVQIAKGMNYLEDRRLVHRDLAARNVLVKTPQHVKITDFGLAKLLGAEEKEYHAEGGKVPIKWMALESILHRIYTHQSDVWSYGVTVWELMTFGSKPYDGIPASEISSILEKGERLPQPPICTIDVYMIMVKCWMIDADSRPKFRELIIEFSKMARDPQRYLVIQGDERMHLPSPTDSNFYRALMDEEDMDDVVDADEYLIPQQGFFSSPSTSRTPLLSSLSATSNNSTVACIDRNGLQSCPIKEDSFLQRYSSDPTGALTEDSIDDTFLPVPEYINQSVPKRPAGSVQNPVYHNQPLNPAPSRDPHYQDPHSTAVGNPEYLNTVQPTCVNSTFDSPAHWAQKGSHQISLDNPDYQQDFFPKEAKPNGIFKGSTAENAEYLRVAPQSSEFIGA
T1 sequence (P00533 with tags, fused parts or gaps INS763FHEA limits assumed): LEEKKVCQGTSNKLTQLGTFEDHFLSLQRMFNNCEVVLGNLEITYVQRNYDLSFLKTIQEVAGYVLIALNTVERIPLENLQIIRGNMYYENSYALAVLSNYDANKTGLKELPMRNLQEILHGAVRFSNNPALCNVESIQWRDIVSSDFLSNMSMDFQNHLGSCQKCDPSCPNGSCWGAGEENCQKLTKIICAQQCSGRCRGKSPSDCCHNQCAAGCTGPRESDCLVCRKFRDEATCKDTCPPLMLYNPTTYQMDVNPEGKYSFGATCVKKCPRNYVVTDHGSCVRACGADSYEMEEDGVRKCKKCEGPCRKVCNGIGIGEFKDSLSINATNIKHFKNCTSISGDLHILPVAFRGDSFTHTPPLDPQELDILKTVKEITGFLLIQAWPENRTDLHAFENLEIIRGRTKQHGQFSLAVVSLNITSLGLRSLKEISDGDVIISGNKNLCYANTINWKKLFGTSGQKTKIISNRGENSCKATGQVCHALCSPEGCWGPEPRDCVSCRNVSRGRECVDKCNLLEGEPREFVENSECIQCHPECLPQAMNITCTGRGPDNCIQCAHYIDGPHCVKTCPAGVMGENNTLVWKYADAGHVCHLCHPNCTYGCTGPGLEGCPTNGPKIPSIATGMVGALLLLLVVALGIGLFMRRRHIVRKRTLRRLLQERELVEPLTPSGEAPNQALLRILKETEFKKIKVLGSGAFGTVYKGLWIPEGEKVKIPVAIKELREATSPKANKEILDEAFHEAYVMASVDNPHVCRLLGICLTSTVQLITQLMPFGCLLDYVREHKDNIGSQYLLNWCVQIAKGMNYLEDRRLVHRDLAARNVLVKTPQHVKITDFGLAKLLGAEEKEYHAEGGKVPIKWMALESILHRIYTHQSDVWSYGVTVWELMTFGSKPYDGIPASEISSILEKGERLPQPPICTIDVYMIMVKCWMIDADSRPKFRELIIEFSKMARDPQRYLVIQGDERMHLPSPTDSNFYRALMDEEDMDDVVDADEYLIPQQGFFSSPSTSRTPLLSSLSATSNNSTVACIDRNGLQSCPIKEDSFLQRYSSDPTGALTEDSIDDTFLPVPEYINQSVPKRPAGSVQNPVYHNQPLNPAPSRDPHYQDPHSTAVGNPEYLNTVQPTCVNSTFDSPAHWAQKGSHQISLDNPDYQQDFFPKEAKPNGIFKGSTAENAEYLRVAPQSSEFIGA
T3 sequence (P04626 with tags, fused parts or gaps INS775YVMA limits assumed): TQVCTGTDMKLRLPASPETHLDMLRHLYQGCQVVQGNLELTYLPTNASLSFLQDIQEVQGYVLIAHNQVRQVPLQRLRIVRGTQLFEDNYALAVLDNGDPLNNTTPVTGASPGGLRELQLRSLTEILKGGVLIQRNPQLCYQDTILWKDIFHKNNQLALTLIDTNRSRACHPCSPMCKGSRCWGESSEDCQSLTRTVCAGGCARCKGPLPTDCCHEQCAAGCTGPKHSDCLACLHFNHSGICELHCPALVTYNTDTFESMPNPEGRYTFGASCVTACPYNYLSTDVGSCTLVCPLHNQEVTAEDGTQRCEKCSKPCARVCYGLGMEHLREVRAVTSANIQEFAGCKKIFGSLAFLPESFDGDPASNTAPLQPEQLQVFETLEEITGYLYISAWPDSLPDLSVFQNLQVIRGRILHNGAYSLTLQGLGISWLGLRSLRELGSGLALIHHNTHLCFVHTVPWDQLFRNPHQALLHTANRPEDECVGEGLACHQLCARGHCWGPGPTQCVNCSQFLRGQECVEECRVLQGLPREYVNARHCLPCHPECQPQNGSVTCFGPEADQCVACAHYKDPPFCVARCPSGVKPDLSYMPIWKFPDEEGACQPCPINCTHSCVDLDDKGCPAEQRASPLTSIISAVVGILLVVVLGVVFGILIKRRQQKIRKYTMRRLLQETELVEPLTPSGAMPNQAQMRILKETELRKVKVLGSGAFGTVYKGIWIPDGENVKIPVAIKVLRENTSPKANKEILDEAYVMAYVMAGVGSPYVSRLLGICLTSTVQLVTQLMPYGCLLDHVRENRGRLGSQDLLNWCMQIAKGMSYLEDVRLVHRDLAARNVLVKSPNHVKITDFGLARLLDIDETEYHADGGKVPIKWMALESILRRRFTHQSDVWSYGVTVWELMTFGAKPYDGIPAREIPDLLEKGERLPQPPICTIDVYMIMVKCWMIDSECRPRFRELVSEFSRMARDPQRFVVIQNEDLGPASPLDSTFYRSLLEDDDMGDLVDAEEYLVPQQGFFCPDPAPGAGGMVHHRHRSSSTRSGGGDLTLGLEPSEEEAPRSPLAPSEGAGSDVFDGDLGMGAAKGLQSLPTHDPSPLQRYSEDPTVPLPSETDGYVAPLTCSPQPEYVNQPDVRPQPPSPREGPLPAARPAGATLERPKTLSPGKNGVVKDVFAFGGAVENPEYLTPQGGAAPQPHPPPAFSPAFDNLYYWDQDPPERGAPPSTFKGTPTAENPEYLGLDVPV
T4 sequence (P00533 with tags, fused parts or gaps DEL746-750 limits assumed): as the sequence (P00533 with tags, fused parts or gaps DEL746-750 limits assumed, stated change not applied) above

For orientation: IC50 means the concentration needed to halve the response being measured. Take `C=CC(=O)Nc1cc(Nc2ncc(Cl)c(Nc3cccc4c3N(S(C)(=O)=O)CCC4)n2)c(OC)cc1N(C)CCN(C)C(=O)OC(C)(C)C` [US20240343694, Example 58]: the concentration for half-maximal inhibition (IC50) in assay [1] is 10 nM; in assay [2], below 1 nM; in assay [3] it was 90 nM.

Turning to `C=CC(=O)Nc1cc(N)c(OC)cc1N1CCC(N(C)C)CC1` [US20240343694, Example 59], the IC50 in assay [1] is below 1 nM; in assay [2] it was below 1 nM; in assay [3], 20 nM.

As for `C=CC(=O)Nc1cc(N)c(OC)cc1N1CCC(N2CCN(C)CC2)CC1` [US20240343694, Example 60], the 50% inhibitory concentration (IC50) in assay [1] is below 1 nM; in assay [2], below 1 nM; in assay [3], 10 nM.

In the case of `COC(=O)c1cnc(Cl)nc1Nc1cccc2c1N(S(C)(=O)=O)CCC2` [US20240343694, Example 61], the 50% inhibitory concentration (IC50) in assay [1] is below 1 nM; in assay [2], below 1 nM; in assay [3], 1 nM.

In the case of `C=C(F)C(=O)Nc1cc(N)c(OC)cc1N(C)CCN(C)C` [US20240343694, Example 64], the 50% inhibitory concentration (IC50) in assay [1] is below 1 nM; in assay [2] it was below 1 nM; in assay [3], 3 nM.

As for `CS(=O)(=O)N1CCc2cccc(Nc3nc(Cl)ncc3Cl)c21` [US20240343694, Example 65], the IC50 in assay [1] is below 1 nM; in assay [2], below 1 nM; in assay [3] it was 15 nM.

As for `CCS(=O)(=O)N1CCc2cccc(Nc3nc(Cl)ncc3Cl)c21` [US20240343694, Example 66], the IC50 is below 1 nM in assay [1], below 1 nM in assay [2] and 5 nM in assay [3].

`C=CC(=O)Nc1cc(Nc2ncc(Cl)c(Nc3cccc4c3N(S(C)(=O)=O)CC4)n2)c(OC)cc1N(C)CCN(C)C(=O)OC(C)(C)C` [US20240343694, Example 67]: the values for the IC50 in assay [1], in assay [2] and in assay [3] were below 1 nM, below 1 nM and 81 nM, respectively.

As to `COC(=O)c1cnc(Cl)nc1Nc1cccc2c1N(S(C)(=O)=O)CC2` [US20240343694, Example 68], the IC50 in assay [1] is below 1 nM; in assay [2] it was below 1 nM; in assay [3], 6 nM.

With `CC(C)OC(=O)c1cnc(Cl)nc1Nc1cccc2c1N(S(C)(=O)=O)CC2` [US20240343694, Example 69], the results for the IC50 in assay [4], in assay [1] and in assay [3] were below 1 nM, below 1 nM and 6 nM, respectively.

Consider `CS(=O)(=O)N1CCc2cccc(Nc3nc(Cl)ncc3C#N)c21` [US20240343694, Example 70], for which the figures for the IC50 in assay [1], in assay [2] and in assay [3] were 4 nM, below 1 nM and 33 nM, respectively.

Consider `C=CC(=O)Nc1cc(N)c(OC)cc1OCCN(C)C` [US20240343694, Example 71], for which the concentration for half-maximal inhibition (IC50) in assay [1] is 5 nM; in assay [2] it was below 1 nM; in assay [3] it was 61 nM.

With `CS(=O)(=O)N1CCc2cccc(Nc3nc(Cl)ncc3C(F)(F)F)c21` [US20240343694, Example 73], the figures for the half-inhibitory concentration (IC50) in assay [1], in assay [2] and in assay [3] were below 1 nM, below 1 nM and 5 nM, respectively.

On to `CS(=O)(=O)n1ccc2cccc(Nc3nc(Cl)ncc3Cl)c21` [US20240343694, Example 74], for which the IC50 in assay [1], in assay [2] and in assay [3] was below 1 nM throughout.

Regarding `CN(c1c(Nc2nc(Cl)ncc2Cl)ccc2nccnc12)S(C)(=O)=O` [US20240343694, Example 75], the IC50 was below 1 nM in assay [1], below 1 nM in assay [2] and 3 nM in assay [3].

Turning to `CS(=O)(=O)Nc1c(Nc2nc(Cl)ncc2Cl)ccc2nccnc12` [US20240343694, Example 76], the IC50 is below 1 nM in assay [1], below 1 nM in assay [2] and 1 nM in assay [3].

In the case of `O=S1(=O)CCCN1c1ccccc1Nc1nc(Cl)ncc1Cl` [US20240343694, Example 77], the IC50 in assay [1] is below 1 nM; in assay [2], below 1 nM; in assay [3], 2 nM.

For the molecule `O=S1(=O)CCCCN1c1ccccc1Nc1nc(Cl)ncc1Cl` [US20240343694, Example 78], the IC50 in assay [1] is below 1 nM; in assay [2], below 1 nM; in assay [3], 3 nM.

Take `C=CC(=O)Nc1cc(N)c(OC)cc1N(C)CCN1CCN(C)CC1` [US20240343694, Example 79]: the values for the concentration for half-maximal inhibition (IC50) in assay [1], in assay [2] and in assay [3] were below 1 nM, below 1 nM and 1 nM, respectively.

As to `C=CC(=O)Nc1cc(N)c(OC)cc1OCCN1CCOCC1` [US20240343694, Example 80], the concentration for half-maximal inhibition (IC50) in assay [1] is below 1 nM; in assay [2], below 1 nM; in assay [3], 1 nM.

In the case of `C=CC(=O)Nc1cc(N)c(OC)cc1OCCN1CCCCC1` [US20240343694, Example 81], the IC50 in assay [1], in assay [2] and in assay [3] was below 1 nM each time.

With `C=CC(=O)Nc1cc(N)c(OC)cc1N(C)CCN1CCC1` [US20240343694, Example 82], the figures for the half-inhibitory concentration (IC50) in assay [1], in assay [2] and in assay [3] were below 1 nM, below 1 nM and 2 nM, respectively.

Turning to `CC(=O)Nc1c([N+](=O)[O-])ccc(C)c1C` [US20240343694, Example 83], the IC50 is 19 nM in assay [1], 3 nM in assay [2] and 374 nM in assay [3].

With `CC(=O)N(C)c1c([N+](=O)[O-])ccc(C)c1C` [US20240343694, Example 84], the IC50 in assay [1] is 3 nM; in assay [2] it was 1 nM; in assay [3], 52 nM.

With `CC(=O)N(C)c1c(N)ccc(C)c1C` [US20240343694, Example 85], the figures for the concentration for half-maximal inhibition (IC50) in assay [1], in assay [2] and in assay [3] were 43 nM, 18 nM and 871 nM, respectively.

`CC(=O)N(C)c1c(Nc2nc(Cl)ncc2Cl)ccc(C)c1C` [US20240343694, Example 86]: the 50% inhibitory concentration (IC50) is 20 nM in assay [1], 2 nM in assay [2] and 157 nM in assay [3].

In the case of `CC(=O)Nc1c(Nc2nc(Cl)ncc2Cl)ccc(C)c1C` [US20240343694, Example 87], the half-inhibitory concentration (IC50) in assay [1] turned out to be 24 nM; in assay [2], 4 nM; in assay [3] it was 107 nM.

As for `CC(=O)N(C)c1c(C)cccc1Nc1nc(Cl)ncc1Cl` [US20240343694, Example 88], the concentration for half-maximal inhibition (IC50) in assay [1] was 2 nM; in assay [2], below 1 nM; in assay [3] it was 14 nM.

As to `CC(=O)Nc1c(C)cccc1Nc1nc(Cl)ncc1Cl` [US20240343694, Example 89], the IC50 in assay [1] worked out at 77 nM; in assay [2], 20 nM; in assay [3], 479 nM.

The values are drawn from BindingDB's records for patent US20240343694 (Korea Reserarch Institute of Chemical Technology, 2024).
